Test results published in US20050191252A1, “Skin beautification cosmetic system using iontophoresis device, ultrasonic facial stimulator, and cosmetic additive” (priority 2004, published 2005).
Like-named read-outs stand apart in the source and are kept apart here.

Columns and labels:
[1] = Vitamin C osmosis comparison using autoradiography (Test Example 3); format: in vivo, hairless rat
Source text: Vitamin C osmosis comparison using autoradiography.
These figures (photographs) display a cross-section of rat skin tissue, wherein black dots in the epidermis and dermis indicate vitamin C.

[2] = rat, in vivo
Description: The present inventor introduced a 0.1% diluted solution of C-ascorbic acid (hereinafter referred to as Vitamin C) into the back skin of a rat by simple external application and iontophoresis to compare osmosis of vitamin C using a scintillation counter and autoradiography.
A 0.1% vitamin C solution was applied to the back skin of a hairless rat for 20 seconds by iontophoresis or for 10 minutes by simple external application. Tissue samples were collected at prescribed intervals (Samples of iontophoresis application: control, 0.5 h, 1 h, 2 h, 3 h, and 6 h; samples of simple external application: control, 1 h, 2 h, 3 h, and 6 h). Each collected sample was cut into two pieces, one of which was separated into epidermis and dermis for use as a scintillation counter sample. A lyophilized section was prepared from the other piece of the sample and developed for autoradiography analysis. The vitamin C concentration in each tissue was determined using IR analysis.

[3] = Vitamin C osmosis into the human skin (Test Example 1), iontophoretic introduction, HPLC of epidermis and dermis; conditions: human thigh skin, five hours after five minutes iontophoretic introduction
Description: <Experiment Procedure> • (1) Vitamin C was iontophoretically introduced for five minutes. • (2) After five hours, 5 mm of the skin was punched, separated into epidermis and dermis, and freeze dried. • (3) The Vitamin C concentration in the epidermis and dermis was determined by HPLC. • 1) The freeze dry samples were dissolved in 500 □1 of a moving layer solvent. • 2) The solution was ultrasonically treated for 10 minutes, • 3) filtered through a 0.2 mm filter, and • 4) subjected to HPLC measurement.
Moving layer: A 0.08 M CH3COOH—CH3COONa buffer solution (pH 5.0) containing 2.8 mM Mn-hexyl amine, 0.1 mM disodium edetate, and 2% methanol. • Measuring amount: 20 □1 • Flow rate: 0.8 ml/min. • Wavelength: 254 nm • Column: ODS column oven: 40° C.

osmosis by iontophoresis application relative to simple external application ([2]; hairless): about 30 times
time at which concentration reached maximum ([2]; hairless): 0.5 h
time at which concentration reached maximum [2]: one
Dermis (ppm), Vitamin C concentration [3]: 0.05 ppm
Epidermis (ppm), Vitamin C concentration [3]: 0.02 ppm
Structure (SMILES): O=C1O[C@H]([C@@H](O)CO)C(O)=C1O [Vitamin C, C-ascorbic acid]
penetration from the epidermis into the dermis (autoradiography) ([1]; iontophoresis application, rat back skin (FIG. 7)): started to penetrate at 0.5 hour and more abundantly after one hour
penetration from the epidermis into the dermis (autoradiography) ([1]; simple external application, rat back skin (FIG. 6)): progressively penetrated from the epidermis into the dermis over time
